In brackets after ≈: the same amount, converted by molar mass. Blank lines part the entries; values can stand above or below the molecule they belong to.
Experiments:
[1] = Half life in human hepatocytes; format: ADME, cell-based, Hepatocyte
MDR1 (human) [2] = experiment: Efflux ratio of permeability in MDCK cells expressing human MDR1; format: ADME, cell-based, Canis lupus familiaris; details: dog
[3] = Apparent intrinsic clearance in human hepatocytes; format: ADME, cell-based, Hepatocyte; details: read-out: CLH(app)
[4] = Passive apparent permeability from apical to basolateral side in RRCK cells; format: ADME, cell-based, Canis lupus familiaris, MDCKII-LE; details: dog, MDCK
Gamma-secretase [5] = experiment: Modulation of gamma-secretase (unknown origin) expressed in CHO cells overexpressing human wild type APP assessed as reduction of amyloid beta 42 level after 24 hrs by ELISA; format: cell-based
[6] = Apparent intrinsic clearance in human liver microsomes; format: ADME; details: read-out: CLH(app)
Cavia porcellus [7] = experiment: Antialzheimer activity in Hartley guinea pig assessed as reduction in brain amyloid beta 42 level at 10 mg/kg, po measured after 4 hrs post dosing relative to control; format: functional; design: scale not given: the % may be the effect or the level left
[8] = Half life in rat at 1 mg/kg, iv; format: ADME, organism-based; design: dose 1 mg/kg, route intravenous; details: in vivo
Cytochrome P450 2C9 = Cytochrome P450 2C9 (Homo sapiens, UniProt P11712); experiment: Inhibition of CYP2C9 (unknown origin); format: ADME
Sequence of Cytochrome P450 2C9 (P11712 whole entry): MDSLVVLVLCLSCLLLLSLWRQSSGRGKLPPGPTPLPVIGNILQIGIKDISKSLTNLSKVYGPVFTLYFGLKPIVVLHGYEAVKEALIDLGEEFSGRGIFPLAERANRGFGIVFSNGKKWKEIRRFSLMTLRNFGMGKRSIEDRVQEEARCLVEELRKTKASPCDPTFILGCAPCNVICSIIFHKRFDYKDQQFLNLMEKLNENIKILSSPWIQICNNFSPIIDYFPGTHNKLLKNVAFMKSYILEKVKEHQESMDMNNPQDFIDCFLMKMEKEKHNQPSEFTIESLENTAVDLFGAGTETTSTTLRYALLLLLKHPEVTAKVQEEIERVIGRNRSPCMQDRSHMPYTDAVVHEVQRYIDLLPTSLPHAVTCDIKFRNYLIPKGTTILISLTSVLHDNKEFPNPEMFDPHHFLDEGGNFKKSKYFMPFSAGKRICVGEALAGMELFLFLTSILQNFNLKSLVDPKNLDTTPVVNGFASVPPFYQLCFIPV

Cavia porcellus [9] = experiment: Antialzheimer activity in Hartley guinea pig assessed as increase in brain amyloid beta 38 level at 30 mg/kg, po measured after 4 hrs post dosing relative to control; format: functional
Cavia porcellus [10] = experiment: Antialzheimer activity in Hartley guinea pig assessed as reduction in brain amyloid beta 40 level at 30 mg/kg, po measured after 4 hrs post dosing relative to control; format: functional; design: scale not given: the % may be the effect or the level left
Gamma-secretase [11] = experiment: Modulation of gamma secretase in HEK293 NdeltaE cells assessed as inhibition of notch signalling; format: cell-based, Homo sapiens
[12] = Fraction unbound in Hartley guinea pig brain; format: ADME, tissue-based, Cavia porcellus
[13] = Ratio of unbound drug level in brain to plasma in rat; format: ADME
Cavia porcellus [14] = experiment: Antialzheimer activity in Hartley guinea pig assessed as reduction in brain total amyloid beta level at 10 mg/kg, po measured after 4 hrs post dosing relative to control; format: functional; design: scale not given: the % may be the effect or the level left
MDR1 (human) [15] = experiment: Permeability from apical to basolateral side in MDCK cells expressing human MDR; format: ADME, cell-based, Canis lupus familiaris; details: dog, read-out: permeability
[16] = Aqueous kinetic solubility of the compound at pH 6.5; format: physicochemical; details: read-out: Kinetic_solubility
[17] = Fraction unbound in rat plasma; format: ADME, cell-free
[18] = Drug uptake in Hartley guinea pig cerebrospinal fluid at 30 mg/kg, po after 4 hrs post dosing; format: ADME, organism-based, Cavia porcellus; design: dose 30 mg/kg, route oral; details: read-out: Drug uptake
Cytochrome P450 2C19 = Cytochrome P450 2C19 (Homo sapiens, UniProt P33261); experiment: Inhibition of CYP2C19 (unknown origin); format: ADME
Sequence of Cytochrome P450 2C19 (P33261 whole entry): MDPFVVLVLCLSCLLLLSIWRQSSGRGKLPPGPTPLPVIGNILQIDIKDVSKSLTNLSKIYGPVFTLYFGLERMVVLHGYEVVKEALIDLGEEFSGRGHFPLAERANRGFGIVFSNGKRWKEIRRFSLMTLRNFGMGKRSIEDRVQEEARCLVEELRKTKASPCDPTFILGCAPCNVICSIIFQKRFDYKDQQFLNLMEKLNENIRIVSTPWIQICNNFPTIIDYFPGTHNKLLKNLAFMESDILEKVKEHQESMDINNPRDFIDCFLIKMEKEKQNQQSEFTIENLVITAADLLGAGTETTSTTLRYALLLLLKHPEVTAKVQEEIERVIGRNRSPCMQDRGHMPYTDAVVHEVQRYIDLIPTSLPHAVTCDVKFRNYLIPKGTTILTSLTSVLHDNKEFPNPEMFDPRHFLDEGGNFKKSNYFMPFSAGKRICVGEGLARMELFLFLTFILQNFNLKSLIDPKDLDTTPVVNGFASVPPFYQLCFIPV

[19] = Drug uptake in rat brain at 5 mg/kg, po after 1 hr; format: ADME, organism-based; design: dose 5 mg/kg, route oral; details: read-out: Drug uptake
Cavia porcellus [20] = experiment: Antialzheimer activity in Hartley guinea pig assessed as increase in brain amyloid beta 38 level at 90 mg/kg, po measured after 4 hrs post dosing relative to control; format: functional
[21] = Lipophilicity, log D of the compound by shake flask method; format: physicochemical; details: octanol/water
Cytochrome P450 3A4 = Cytochrome P450 3A4 (Homo sapiens, UniProt P08684); experiment: Inhibition of CYP3A4 (unknown origin); format: ADME
Sequence of Cytochrome P450 3A4 (P08684 whole entry): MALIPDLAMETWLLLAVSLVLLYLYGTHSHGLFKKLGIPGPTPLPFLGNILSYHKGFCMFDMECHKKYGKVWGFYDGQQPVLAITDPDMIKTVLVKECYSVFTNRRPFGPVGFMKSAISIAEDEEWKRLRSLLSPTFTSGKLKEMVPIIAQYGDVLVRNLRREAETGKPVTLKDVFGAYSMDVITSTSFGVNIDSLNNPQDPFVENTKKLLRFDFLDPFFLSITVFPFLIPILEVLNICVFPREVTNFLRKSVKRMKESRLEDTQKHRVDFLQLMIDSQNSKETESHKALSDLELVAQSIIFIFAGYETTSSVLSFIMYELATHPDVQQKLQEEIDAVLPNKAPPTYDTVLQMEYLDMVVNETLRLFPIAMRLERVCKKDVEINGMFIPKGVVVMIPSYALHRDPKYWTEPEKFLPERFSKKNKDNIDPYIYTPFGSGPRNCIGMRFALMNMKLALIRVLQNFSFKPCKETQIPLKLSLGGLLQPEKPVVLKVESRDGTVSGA

Cavia porcellus [22] = experiment: Antialzheimer activity in Hartley guinea pig assessed as reduction in brain amyloid beta 40 level at 10 mg/kg, po measured after 4 hrs post dosing relative to control; format: functional; design: scale not given: the % may be the effect or the level left
[23] = Drug uptake in Hartley guinea pig cerebrospinal fluid at 90 mg/kg, po after 4 hrs post dosing; format: ADME, organism-based, Cavia porcellus; design: dose 90 mg/kg, route oral; details: read-out: Drug uptake
Cytochrome P450 2D6 = Cytochrome P450 2D6 (Homo sapiens, UniProt P10635); experiment: Inhibition of CYP2D6 (unknown origin); format: ADME
Sequence of Cytochrome P450 2D6 (P10635 whole entry): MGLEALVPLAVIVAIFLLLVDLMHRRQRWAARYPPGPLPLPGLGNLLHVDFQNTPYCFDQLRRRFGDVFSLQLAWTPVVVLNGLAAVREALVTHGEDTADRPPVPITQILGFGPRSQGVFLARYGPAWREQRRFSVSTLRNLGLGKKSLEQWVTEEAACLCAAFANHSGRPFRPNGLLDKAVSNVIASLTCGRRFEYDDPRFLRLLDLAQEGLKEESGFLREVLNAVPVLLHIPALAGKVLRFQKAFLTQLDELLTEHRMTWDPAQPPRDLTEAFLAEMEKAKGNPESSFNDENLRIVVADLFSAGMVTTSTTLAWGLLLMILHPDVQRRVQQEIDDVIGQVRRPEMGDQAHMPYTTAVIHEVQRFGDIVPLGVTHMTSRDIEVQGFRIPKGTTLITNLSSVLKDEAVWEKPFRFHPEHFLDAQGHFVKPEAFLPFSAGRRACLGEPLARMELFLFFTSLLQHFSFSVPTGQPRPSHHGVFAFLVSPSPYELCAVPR

[24] = Drug uptake in Hartley guinea pig brain at 30 mg/kg, po after 4 hrs post dosing; format: ADME, organism-based, Cavia porcellus; design: dose 30 mg/kg, route oral; details: read-out: Drug uptake
Cavia porcellus [25] = experiment: Antialzheimer activity in Hartley guinea pig assessed as reduction in brain amyloid beta 42 level at 90 mg/kg, po measured after 4 hrs post dosing relative to control; format: functional; design: scale not given: the % may be the effect or the level left
Cavia porcellus [26] = experiment: Antialzheimer activity in Hartley guinea pig assessed as reduction in brain total amyloid beta level at 90 mg/kg, po measured after 4 hrs post dosing relative to control; format: functional; design: scale not given: the % may be the effect or the level left
Cytochrome P450 1A2 = molecular target: T1, Cytochrome P450 1A2 (Homo sapiens, UniProt P05177); experiment: Inhibition of CYP1A2 (unknown origin); format: ADME
T1 sequence (P05177 whole entry): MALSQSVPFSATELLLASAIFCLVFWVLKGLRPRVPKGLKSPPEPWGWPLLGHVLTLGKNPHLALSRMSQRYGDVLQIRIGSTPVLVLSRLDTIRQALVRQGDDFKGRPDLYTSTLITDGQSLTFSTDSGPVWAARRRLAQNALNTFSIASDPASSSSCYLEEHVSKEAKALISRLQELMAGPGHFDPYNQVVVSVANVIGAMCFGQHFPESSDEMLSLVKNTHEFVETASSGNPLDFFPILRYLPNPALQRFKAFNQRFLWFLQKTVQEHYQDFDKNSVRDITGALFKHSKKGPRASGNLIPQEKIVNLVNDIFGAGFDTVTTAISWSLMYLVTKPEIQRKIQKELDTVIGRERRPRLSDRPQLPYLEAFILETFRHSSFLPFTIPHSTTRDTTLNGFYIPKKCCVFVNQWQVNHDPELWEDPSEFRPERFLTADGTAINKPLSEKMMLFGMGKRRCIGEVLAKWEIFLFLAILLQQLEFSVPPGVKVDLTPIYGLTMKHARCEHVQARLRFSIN

[27] = Plasma concentration in Hartley guinea pig at 30 mg/kg, po after 4 hrs post dosing; format: ADME, organism-based, Cavia porcellus; design: dose 30 mg/kg, route oral
[28] = Drug uptake in Hartley guinea pig brain at 90 mg/kg, po after 4 hrs post dosing; format: ADME, organism-based, Cavia porcellus; design: dose 90 mg/kg, route oral; details: read-out: Drug uptake
Cavia porcellus [29] = experiment: Antialzheimer activity in Hartley guinea pig assessed as reduction in brain amyloid beta 40 level at 90 mg/kg, po measured after 4 hrs post dosing relative to control; format: functional; design: scale not given: the % may be the effect or the level left
[30] = Volume of distribution at steady state in rat at 1 mg/kg, iv; format: ADME, organism-based; design: dose 1 mg/kg, route intravenous; details: in vivo, read-out: Vdss
[31] = Drug uptake in Hartley guinea pig cerebrospinal fluid at 10 mg/kg, po after 4 hrs post dosing; format: ADME, organism-based, Cavia porcellus; design: dose 10 mg/kg, route oral; details: read-out: Drug uptake
Cavia porcellus [32] = experiment: Antialzheimer activity in po dosed Hartley guinea pig assessed as reduction in brain amyloid beta 42 level measured after 4 hrs post dosing; format: functional, organism-based
Cavia porcellus [33] = experiment: Antialzheimer activity in Hartley guinea pig assessed as reduction in brain amyloid beta 42 level at 30 mg/kg, po measured after 4 hrs post dosing relative to control; format: functional; design: scale not given: the % may be the effect or the level left
[34] = Plasma concentration in Hartley guinea pig at 90 mg/kg, po after 4 hrs post dosing; format: ADME, organism-based, Cavia porcellus; design: dose 90 mg/kg, route oral
[35] = Ratio of drug uptake in brain to plasma in rat at 5 mg/kg, po after 1 hr; format: ADME, organism-based; design: dose 5 mg/kg, route oral; details: read-out: BPR
Cavia porcellus [36] = experiment: Antialzheimer activity in Hartley guinea pig assessed as reduction in brain total amyloid beta level at 30 mg/kg, po measured after 4 hrs post dosing relative to control; format: functional; design: scale not given: the % may be the effect or the level left
[37] = Fraction unbound in rat brain; format: ADME, tissue-based
[38] = Drug uptake in Hartley guinea pig brain at 10 mg/kg, po after 4 hrs post dosing; format: ADME, organism-based, Cavia porcellus; design: dose 10 mg/kg, route oral; details: read-out: Drug uptake
Cavia porcellus [39] = experiment: Antialzheimer activity in Hartley guinea pig assessed as increase in brain amyloid beta 38 level at 10 mg/kg, po measured after 4 hrs post dosing relative to control; format: functional
[40] = Clearance in rat at 1 mg/kg, iv; format: ADME, organism-based; design: dose 1 mg/kg, route intravenous; details: in vivo
[41] = Bioavailability in rat at 1 mg/kg, iv and 5 mg/kg, po; format: ADME, organism-based; details: in vivo
[42] = Plasma concentration in Hartley guinea pig at 10 mg/kg, po after 4 hrs post dosing; format: ADME, organism-based, Cavia porcellus; design: dose 10 mg/kg, route oral
[43] = Fraction unbound in Hartley guinea pig plasma; format: ADME, cell-free, Cavia porcellus
Cytochrome P450 2C8 = molecular target: T2, Cytochrome P450 2C8 (Homo sapiens, UniProt P10632); experiment: Inhibition of CYP2C8 (unknown origin); format: ADME
T2 sequence (P10632 whole entry): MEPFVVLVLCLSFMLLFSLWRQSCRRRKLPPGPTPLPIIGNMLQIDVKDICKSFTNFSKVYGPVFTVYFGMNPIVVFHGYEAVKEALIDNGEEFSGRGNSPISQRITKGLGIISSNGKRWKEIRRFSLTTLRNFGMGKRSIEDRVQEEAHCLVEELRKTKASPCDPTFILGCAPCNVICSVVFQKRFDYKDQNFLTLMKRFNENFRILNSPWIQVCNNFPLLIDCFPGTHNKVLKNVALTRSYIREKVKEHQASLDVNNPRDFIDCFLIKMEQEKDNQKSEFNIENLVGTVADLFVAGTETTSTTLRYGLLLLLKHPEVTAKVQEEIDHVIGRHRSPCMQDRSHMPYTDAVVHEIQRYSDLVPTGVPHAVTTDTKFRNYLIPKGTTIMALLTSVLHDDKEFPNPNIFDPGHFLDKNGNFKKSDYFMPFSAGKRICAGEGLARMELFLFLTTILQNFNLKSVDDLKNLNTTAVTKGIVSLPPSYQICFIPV

[44] = Plasma concentration in rat at 5 mg/kg, po after 1 hr; format: ADME, organism-based; design: dose 5 mg/kg, route oral
Cavia porcellus [45] = experiment: Antialzheimer activity in po dosed Hartley guinea pig assessed as reduction in brain amyloid beta 40 level measured after 4 hrs post dosing; format: functional, organism-based
[46] = Apparent intrinsic clearance in rat liver microsomes; format: ADME; details: read-out: CLH(app)

- half-life [1]: 0.322 h
- efflux ratio (MDR1 (human) [2]): 1.9
- CLint scaled [3]: 5.43 L/h/kg
- Papp A→B [4]: 104 nm/s
- IC50 (Gamma-secretase [5]): 0.4 µM
- CLint scaled [6]: < 0.48 L/h/kg
Structure (SMILES): Cc1cn(-c2ccc3c(c2O)CCN(Cc2cccc(C(F)(F)F)c2)C3=O)cn1

- half-life [8]: 6.88 h
- IC50 (Cytochrome P450 2C9): 15.4 µM
- IC50 (Gamma-secretase [11]): > 50 µM
- fraction unbound [12]: 0.008
- Kp uu [13]: 0.32
- efflux ratio (MDR1 (human) [2]): 1.8
- Papp A→B (MDR1 (human) [15]): 58 nm/s
- solubility kinetic [16]: 95.6 µM (≈ 44.6 µg/mL)
- fraction unbound [17]: 0.0063
- concentration at 4 h [18]: 0.0357 µM
- IC50 (Cytochrome P450 2C19): > 30 µM
- concentration at 1 h [19]: 1 µg/mL
- logD [21]: 3.32
- IC50 (Cytochrome P450 3A4): > 30 µM
- concentration at 4 h [23]: 0.239 µM
- IC50 (Cytochrome P450 2D6): > 30 µM
- concentration at 4 h [24]: 9.16 µM
- IC50 (Cytochrome P450 1A2): > 30 µM
- concentration at 4 h [27]: 0.819 µM
- concentration at 4 h [28]: 52.4 µM
- Vd [30]: 0.69 L/kg
- concentration at 4 h [31]: 0.0127 µM
- concentration at 4 h [34]: 7.3 µM
- Kp at 1 h [35]: 0.24
- fraction unbound [37]: 0.0084
- concentration at 4 h [38]: 2.91 µM
- clearance [40]: 0.0846 L/h/kg
- Papp A→B [4]: 105 nm/s
- bioavailability [41]: 88%
- IC50 (Gamma-secretase [5]): 0.101 µM
- CLint scaled [6]: < 0.48 L/h/kg
- concentration at 4 h [42]: 0.367 µM
- fraction unbound [43]: 0.07
- IC50 (Cytochrome P450 2C8): 12.3 µM
- concentration at 1 h [44]: 4.14 µg/mL
- CLint scaled [46]: 2.86 L/h/kg
Structure (SMILES): Cc1cn(-c2ccc3n(c2=O)CCN(CCOc2ccc(Cl)cc2C(F)(F)F)C3=O)cn1
- Activity (Cavia porcellus [7]): 81%
- Activity (Cavia porcellus [9]): 108%
- Activity (Cavia porcellus [10]): 69%
- Activity (Cavia porcellus [14]): 100%
- Activity (Cavia porcellus [20]): 131%
- Activity (Cavia porcellus [22]): 88%
- Activity (Cavia porcellus [25]): 32%
- Activity (Cavia porcellus [26]): 82%
- Activity (Cavia porcellus [29]): 37%
- Activity (Cavia porcellus [32]): Dose-dependent effect
- Activity (Cavia porcellus [33]): 56%
- Activity (Cavia porcellus [36]): 92%
- Activity (Cavia porcellus [39]): 102%
- Activity (Cavia porcellus [45]): Dose-dependent effect

- efflux ratio (MDR1 (human) [2]): 1.7
- CLint scaled [3]: < 0.168 L/h/kg
- IC50 (Gamma-secretase [5]): 0.41 µM
- CLint scaled [6]: 0.486 L/h/kg
- CLint scaled [46]: 28.9 L/h/kg
Structure (SMILES): Cc1cn(-c2ccc3n(c2=O)CCN(CC2(c4ccc(Cl)cc4)CC2)C3=O)cn1

- efflux ratio (MDR1 (human) [2]): 1.5
- IC50 (Gamma-secretase [5]): 1.63 µM
- CLint scaled [6]: < 0.48 L/h/kg
- CLint scaled [46]: < 1.52 L/h/kg
Structure (SMILES): Cc1cn(-c2ccc3n(c2=O)CCN(Cc2cccc(C(F)(F)F)c2)C3=O)cn1
